The assay has as its system B6C3F1 mice, B16 melanoma ip, median survival T/C. Put plainly: NCI In Vivo Anticancer Drug Screen. Data for tumor model B16 Melanoma (intraperitoneal) in B6C3F1 mice. The conditions noted are these: endpoint: median survival time, higher = longer survival. In a few lines:
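Readout: survival or tumor size in treated mice relative to vehicle controls (T/C). Model uses transplantable tumors grown in mice.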

The mark [1] stands for this setting: dose: 100.0 mg/kg/injection, schedule: Q01DX009 (ip), vehicle: Klucel (hydroxypropylcellulose) (HPC).
[2] abbreviates: dose: 200.0 mg/kg/injection, schedule: Q01DX009 (ip), vehicle: Klucel (hydroxypropylcellulose) (HPC).
The mark [3] stands for this setting: dose: 400.0 mg/kg/injection, schedule: Q01DX009 (ip), vehicle: Klucel (hydroxypropylcellulose) (HPC).
Where [4] appears, read: dose: 25.0 mg/kg/injection, schedule: Q01DX009 (ip), vehicle: saline with Tween-80.
[5] abbreviates: dose: 50.0 mg/kg/injection, schedule: Q01DX009 (ip), vehicle: saline with Tween-80.
Setting [6] is: dose: 100.0 mg/kg/injection, schedule: Q01DX009 (ip), vehicle: saline with Tween-80.
[7] abbreviates: dose: 6.25 mg/kg/injection, schedule: Q01DX009 (ip), vehicle: saline with Tween-80.
Setting [8] is: dose: 12.5 mg/kg/injection, schedule: Q01DX009 (ip), vehicle: saline with Tween-80.
[9] abbreviates: dose: 6.25 mg/kg/injection, schedule: Q01DX009 (ip), vehicle: saline.
Where [10] appears, read: dose: 12.5 mg/kg/injection, schedule: Q01DX009 (ip), vehicle: saline.
The mark [11] stands for this setting: dose: 25.0 mg/kg/injection, schedule: Q01DX009 (ip), vehicle: saline.
Setting [12] is: dose: 50.0 mg/kg/injection, schedule: Q01DX009 (ip), vehicle: saline.
The mark [13] stands for this setting: dose: 100.0 mg/kg/injection, schedule: Q01DX009 (ip), vehicle: saline.
Where [14] appears, read: dose: 0.12 mg/kg/injection, schedule: Q01DX009 (ip), vehicle: Klucel (hydroxypropylcellulose) (HPC).
Where [15] appears, read: dose: 200.0 mg/kg/injection, schedule: Q01DX009 (ip), vehicle: saline with Tween-80.
Where [16] appears, read: dose: 400.0 mg/kg/injection, schedule: Q01DX009 (ip), vehicle: saline with Tween-80.

Values joined by “and” are separate entries in the source; they are usually repeats but may differ in a detail not shown here. Identical values can stand only once. Toxic doses and inconclusive results are not listed.

Among the data in PubChem BioAssay AID200 (DTP/NCI, 2004) are T/C values, retold here.

With `CCn1c(-c2ccc(OC(C)=O)cc2)c(C)c2cc(OC(C)=O)ccc21`, the T/C was 104 % of control (dose: 25.0 mg/kg/injection, schedule: Q01DX009 (ip), vehicle: Klucel (hydroxypropylcellulose) (HPC)); 97 % of control (dose: 50.0 mg/kg/injection, schedule: Q01DX009 (ip), vehicle: Klucel (hydroxypropylcellulose) (HPC)); 97 % of control under setting [1]; 87 % of control under setting [2]; 107 % of control under setting [3].
On to `CCCCc1ccc2nc(NC(=O)OC)[nH]c2c1`, for which the T/C by setting is: under setting [4], 154 % of control; under setting [5], 165 % of control; under setting [6], 165 % of control.
Regarding `CCCCC(NC(=O)OC(C)(C)C)C(=O)O` (stereo not drawn), the T/C by setting is: under setting [1], 97 % of control; under setting [2], 111 % of control; under setting [3], 90 % of control.
As for `N=c1c(C(=O)OCc2ccccc2)ncc(CCl)n1O`, the T/C by setting is: under setting [4], 94 % of control; under setting [5], 95 % of control; under setting [6], 99 % of control.
Consider `COc1cc(C(C)(C)C)cc(OC)c1C(O)(c1c(OC)cc(C(C)(C)C)cc1OC)c1c(OC)cc(C(C)(C)C)cc1OC`, for which the T/C runs as follows: under setting [7], 107 % of control; under setting [8], 114 % of control and 106 % of control; under setting [4], 112 % of control and 106 % of control; under setting [5], 117 % of control; under setting [6], 109 % of control.
For `O=C(Nc1ccc(C2=NCCN2)cc1)c1ccc(C(=O)Nc2ccc(C3=NCCN3)cc2)c(Cl)c1`, the T/C (dose: 1.56 mg/kg/injection, schedule: Q01DX009 (ip), vehicle: saline with Tween-80) is 105 % of control; the T/C (dose: 1.56 mg/kg/injection, schedule: Q01DX009 (ip), vehicle: saline) is 115 % of control; the T/C (dose: 3.12 mg/kg/injection, schedule: Q01DX009 (ip), vehicle: saline with Tween-80) is 98 % of control; the T/C (dose: 3.12 mg/kg/injection, schedule: Q01DX009 (ip), vehicle: saline) was 89 % of control; the T/C under setting [7] was 100 % of control; the T/C under setting [9] is 100 % of control. In addition, the T/C under setting [8] is 93 % of control; the T/C under setting [10] was 93 % of control; the T/C under setting [4] is 110 % of control; the T/C under setting [11] is 94 % of control; the T/C under setting [5] was 110 % of control; the T/C under setting [12] was 99 % of control.
For the compound `CNCCN=c1ccc2c3c1c(O)c1c(O)ccc(=O)c1c3[nH]n2CCNCCO`, the T/C runs as follows: (dose: 0.38 mg/kg/injection, schedule: Q01DX009 (ip), vehicle: water) 273 % of control; (dose: 0.75 mg/kg/injection, schedule: Q01DX009 (ip), vehicle: water) 357 % of control; (dose: 1.5 mg/kg/injection, schedule: Q01DX009 (ip), vehicle: water) 357 % of control; (dose: 3.0 mg/kg/injection, schedule: Q01DX009 (ip), vehicle: water) 309 % of control; (dose: 3.12 mg/kg/injection, schedule: Q01DX009 (ip), vehicle: water) 169 % of control.
Take `CCCCC(NC(=O)CNC(=O)OCc1ccccc1)C(=O)O` (stereo not drawn): the T/C is 92 % of control under setting [1], 96 % of control under setting [2] and 92 % of control under setting [3].
In the case of `CC(/C=N/N=C(N)N)=N\N=C(N)N`, the T/C is, setting by setting: under setting [11], 110 % of control; under setting [12], 111 % of control; under setting [13], 95 % of control.
`CO[C@@]12[C@@H]3N[C@@H]3CN1C1=C(C(=O)C(NCc3ccco3)=C(C)C1=O)[C@@H]2COC(N)=O`: the T/C is 170 % of control (dose: 4.5 mg/kg/injection, schedule: Q01DX001 (ip), vehicle: distilled water + Tween-80); 186 % of control (dose: 9.0 mg/kg/injection, schedule: Q01DX001 (ip), vehicle: distilled water + Tween-80); 219 % of control (dose: 18.0 mg/kg/injection, schedule: Q01DX001 (ip), vehicle: distilled water + Tween-80); 247 % of control (dose: 36.0 mg/kg/injection, schedule: Q01DX001 (ip), vehicle: distilled water + Tween-80).
Consider `NC(=O)C#CC(N)=O`, for which the T/C runs as follows: (dose: 0.06 mg/kg/injection, schedule: Q01DX009 (ip), vehicle: Klucel (hydroxypropylcellulose) (HPC)) 101 % of control; under setting [14], 102 % of control; (dose: 0.23 mg/kg/injection, schedule: Q01DX009 (ip), vehicle: Klucel (hydroxypropylcellulose) (HPC)) 97 % of control; (dose: 0.45 mg/kg/injection, schedule: Q01DX009 (ip), vehicle: Klucel (hydroxypropylcellulose) (HPC)) 100 % of control; (dose: 0.9 mg/kg/injection, schedule: Q01DX009 (ip), vehicle: Klucel (hydroxypropylcellulose) (HPC)) 102 % of control.
As for `O=C1c2cccc(NCCCNCCO)c2C(=O)c2cccc(NCCCNCCO)c21`, the T/C runs as follows: (dose: 6.25 mg/kg/injection, schedule: Q01DX009 (ip), vehicle: acid diluted with saline) 102 % of control; (dose: 12.5 mg/kg/injection, schedule: Q01DX009 (ip), vehicle: acid diluted with saline) 108 % of control; (dose: 25.0 mg/kg/injection, schedule: Q01DX009 (ip), vehicle: acid diluted with saline) 154 % of control.
Regarding `CCCCS(=N)(=O)CC[C@H](N)C(=O)O` (stereo partly drawn), the T/C runs as follows: (dose: 445.0 mg/kg/injection, schedule: Q04HX012 (ip), vehicle: water) 104 % of control; (dose: 890.0 mg/kg/injection, schedule: Q04HX012 (ip), vehicle: water) 107 % of control.
As to `COC1=C(C)C(=O)C2=C(C1=O)C1C3CC4=C(C(=O)C(OC)=C(C)C4=O)C(CNC(=O)C(C)=O)N3C(C#N)C(C2)N1C` (stereo not drawn), the T/C by setting is: under setting [14], 95 % of control; (dose: 0.25 mg/kg/injection, schedule: Q01DX009 (ip), vehicle: Klucel (hydroxypropylcellulose) (HPC)) 103 % of control and 106 % of control; (dose: 0.5 mg/kg/injection, schedule: Q01DX009 (ip), vehicle: Klucel (hydroxypropylcellulose) (HPC)) 99 % of control and 106 % of control; (dose: 1.0 mg/kg/injection, schedule: Q01DX009 (ip), vehicle: Klucel (hydroxypropylcellulose) (HPC)) 115 % of control and 103 % of control.
As to `COc1ccc2c(c1[N+](=O)[O-])CC[C@@H]1[C@@H]2CC[C@]2(C)C(=O)CC[C@@H]12`, the T/C was 94 % of control and 95 % of control under setting [5]; 91 % of control and 108 % of control under setting [6]; 90 % of control under setting [15]; 91 % of control under setting [16]; 91 % of control (dose: 800.0 mg/kg/injection, schedule: Q01DX009 (ip), vehicle: saline with Tween-80).
For `CC(C)NCC(O)COc1ccc(O)c(O)c1` (stereo not drawn), the T/C was 100 % of control and 103 % of control under setting [11]; 113 % of control and 106 % of control under setting [12]; 109 % of control and 116 % of control under setting [13].
Take `Cc1ccc(Cl)c2ccccc12`: the T/C runs as follows: under setting [8], 101 % of control and 104 % of control; under setting [4], 100 % of control and 101 % of control and 104 % of control; under setting [5], 101 % of control and 105 % of control and 107 % of control; under setting [6], 94 % of control and 98 % of control; under setting [15], 94 % of control.
On to `C1CNCCN1`, for which the T/C reads like this: (dose: 25.0 mg/kg/injection, schedule: Q01DX009 (ip), vehicle: suspension in saline) 103 % of control; (dose: 50.0 mg/kg/injection, schedule: Q01DX009 (ip), vehicle: suspension in saline) 111 % of control; (dose: 100.0 mg/kg/injection, schedule: Q01DX009 (ip), vehicle: suspension in saline) 109 % of control; (dose: 200.0 mg/kg/injection, schedule: Q01DX009 (ip), vehicle: suspension in saline) 111 % of control.
Turning to `CCCCCCCCCCCCOCCCOP(=O)([O-])OCC[N+](C)(C)C`, the T/C runs as follows: (dose: 3.13 mg/kg/injection, schedule: Q01DX009 (ip), vehicle: saline) 100 % of control; under setting [9], 100 % of control; under setting [10], 100 % of control; under setting [11], 91 % of control.
Consider `CCC(C)C(=O)O[C@H]1C(=O)O[C@@H]2C[C@H]3C(C)=CC(=O)[C@@H](O)[C@]3(C)[C@H]3[C@@H](O)[C@H](O)[C@@]4(C)OC[C@]32[C@@H]14` (stereo partly drawn), for which the T/C (dose: 1.0 mg/kg/injection, schedule: Q01DX009 (ip), vehicle: saline + alcohol) is 160 % of control.
For `CN1C(=O)NC(c2ccc(Cl)cc2)(c2ccc(Cl)cc2)C1=O`, the T/C under setting [8] is 105 % of control; the T/C under setting [4] is 100 % of control; the T/C under setting [5] is 99 % of control; the T/C under setting [6] is 99 % of control; the T/C under setting [15] is 103 % of control; the T/C under setting [16] is 99 % of control.
